The record followed here is patent US6897298B2, “Method for extracting a compound from a ginseng spp. plant, ginseng or pseudo-ginseng” (priority 2001, dated 2005).

The test system of data set [1] is cerebral ischemia/reperfusion injury rats. The data set can be described thus: MDA content in cerebral tissue homogenate (TBA method). To be noted: Compound (I) 50 mg/kg, Nimodipine 40 μg/kg iv; 5 h after reperfusion; salt-water group 87.7±27.5; p>0.05 vs normal group. Type of data set: in vivo, rat.
Data set [2] deals with cerebral arteria embolisms/reperfusion injury rat model. In words: Behavior change score (Longa method). The class given is in vivo. The conditions noted are these: 5 hours after reperfusion. On the procedure:
(§1) Prepare cerebral arteria embolisms/reperfusion injury rat model according to Longna method. To bring the animal into a state of narcosis, give an intravenous injection of urethane (0.4 ml/100 g weight). Maintain body temperature of the rat at 37±0.5° C. (anal temperature). Let the rat lie on a plate with face toward the ceiling. Make a cut at the right middle of its neck. By means of microsurgery techniques, separate left neck communis and its branches. Isolate arteria carotis externa. By means of electric solidification, cut off occipital arteria, thyroid superia gland arteria, and arteria phyrynix externa, all of which are setting out from arteria carotis externa. Isolate arteria carotis externa further towards the head end. Tie the arteria carotis externa at a place as far as possible. Clamp the beginning part of the arteria carotis externa to make it close with an artery clamp. Tie a loose knot (with 5-0 silk thread going through the arteria carotis externa) at a place between the artery clamp and the tying thread. At a place close to the knot, cut to block the arteria carotis externa. Put into the arteria carotis externa a 3-0 nylon thread, which is 5 cm long and has a drumstick-like head. Tie a fast knot on the silk thread on the arteria crotis externa to avoid bleeding. Remove the arteria clamp. Push the nylon thread slowly into the arteria carotis externa. […]

Data set [3] has the same test system. In words: Measurement of area of cerebral embolisms (TTC staining) after cerebral ischemia/reperfusion. The class given is in vivo. As for the experimental part: as §1, with “thread.” for “thread. At a place close to the knot, cut to block the arteria carotis externa. Put into the arteria carotis externa a 3-0 nylon thread, which is 5 cm long and has a drumstick-like head. Tie a fast knot on the silk thread on the arteria crotis externa to avoid bleeding. Remove the arteria clamp. Push the nylon thread slowly into the arteria carotis externa.”
Open the cranium and take the whole brain. […] The area of obstructed cerebral tissue was measured with a fully automatic image analysis system (Model IPAS-C, Kontror Co, Germany). […] For this experiment, the average value of those measured of slices 2 and 3 were taken as the measured result for each animal's area of obstruction. […]

Data set [4] in a line: Physical and chemical properties: solubility. Type of data set: physicochemical. The conditions noted are these: substance obtained in Example 1. On the procedure: Physical and chemical property tests and element analysis were carried out for the substance. Also done were its mass spectra, infrared and ultraviolet spectrum, ^1H and ^13C nuclear magnetic resonance tests. The conditions and results were:
Physical and chemical properties: white or a little yellow powder. Melting point—209˜214° C.

The nature of data set [5]: Three kinds of experiments (disability, cancer, mutation). From the text: Therefore, its cure effects are good.
Data set [6] concerns cerebral ischemia/reperfusion injury rats. In words: SOD activity in cerebral tissue homogenate (pyrogallol self-oxidation method). Type of data set: in vivo, rat. To be noted: Compound (I) 50 mg/kg, Nimodipine 40 μg/kg iv; 5 h after reperfusion; normal 70.30±24.7 u/g, salt-water 46.7±16.6 u/g. On the procedure: 38 rats were used. After making cerebral ischemia/reperfusion injury, the rats were randomly divided into groups of contrast (equal volume of physiological salt-water), Nimodipine treatment (40 μg/kg), and Compound (I) treatment (50 mg/kg). […] After another 5 minutes, drug was given iv under tongue. 60 minutes after cerebral ischemia was made, reperfusion was made. After another 5 hours, rat brains were stripped off rapidly according to Gotoh Method. Right and left brain hemispheres were weighed respectively, and were kept in fridge at −70° C.
The tissue to be measured (about 0.3˜0.5) were washed clean with physiological salt-water. Then cold distilled water was used to prepare homogenate on a glass blender. Then centrifugal machine was set at 1,500 rpm to work for 15 minutes, the temperature being 0° C. […]
(1) SOD measurement (pyrogallol self-oxidation method): Take a 15 ml test tube. […] Change of absorbance is measured under conditions of: ultra-violet spectrophotometer (UV 1601 PC, Shimatsu Co., Japan), wavelength of 325 nm, and slit of 2. Then activity units are calculated according to the following formula: Tissue homogenate SOD(u/g cerebral tissue)=(control tube−sample tube)/control tube/0.5×1/cerebral tissue weight (g)

Data set [7] relates to cerebral arteria embolisms/reperfusion injury rat model. The data set can be described thus: Scanning record of electroencephalogram after cerebral ischemia/reperfusion. The class given is in vivo. To be noted: 1 h block. On the procedure: as §1, with “externa.” for “externa. Put into the arteria carotis externa a 3-0 nylon thread, which is 5 cm long and has a drumstick-like head. Tie a fast knot on the silk thread on the arteria crotis externa to avoid bleeding. Remove the arteria clamp. Push the nylon thread slowly into the arteria carotis externa.”
One needle-type electrode was placed at top forehead. […] Electroencephalogram change outside of skin before and after obstruction was recorded with 8-lead physiological recorder made by Japan Optical-Electric Co.

For data set [8] the test system is unchanged. In words: Pathological exam of nerve cells and nerve fibers (HE, myelin staining). The class given is in vivo. To be noted: iv 50 mg/kg, 10 mg/kg and 2 mg/kg; dosage-dependent. As for the experimental part: as §1
Data set [9] has the same test system. In words: Measurement of water content in brain tissue. The class given is in vivo. To be noted: Compound (I) intravenous injection.
The nature of a further data set: Acute toxicity test. The conditions noted are these: in vivo, Mouse. From the text: Results of acute toxicity test for Compound (I) were: […]
A further data set has as its system Rats. The conditions noted are these: for toxicity finding: iv 14 days.

The LD50 is the dose at which mortality reaches 50%.

Read-outs that look alike come from different tables or passages of the source.

For `COCCOC(=O)C1=C(C)NC(C)=C(C(=O)OC(C)C)C1c1cccc([N+](=O)[O-])c1` (stereo not shown) [Nimodipine, reference compound], in data set [1], the MDA content is recorded as 67.0±21.8 nmol/mg tissue weight. Further, in [2] (salt-water contrast group 3.3±1.0, p>0.05), the “behavior scores (0-5)” value is recorded as 2.9±1.2 scores.
For `CC(C)=CCC[C@](C)(OCC1OC(CO)C(O)C(O)C1O)C1CC[C@]2(C)C1[C@H](O)CC1[C@@]3(C)CC[C@H](OC4OC(CO)C(O)C(O)C4OC4OC(CO)C(O)C(O)C4O)C(C)(C)C3CC[C@]12C` (stereo partly drawn) [Compound (I), 20-(S)-protopanaxadiol-3-[O-β-D-glucopyranosyl (1→2)-β-D-glucopyranosyl]-20-O-β-D-glucopyranoside], the “embolism (infarction) area of cerebral tissue” value in [3] (Compound (I) 2˜50 mg/kg iv, 1 h ischemia, 5 h after reperfusion, dosage dependent) is recorded as “could decrease embolism area of cerebellum tissue”. The “cure effects compared with Nimodipine” value in data set [3] (iv 50, 10 and 2 mg/kg, overall conclusion over all indexes) is “better than that of active contrast drug Nimodipine”. The solubility result in [4] is “Very easy to dissolve in lower alcohol, acetone, chloroform, and hot water”. The “causes disability, cancer, and mutation” value in data set [5] was “does not have these side effects”. For the same compound, the “SOD activity compared with normal contrast group (false surgery)” value in [6] is listed as “no significant statistics difference”. Further, the amplitude of electroencephalogram result in [7] (2 mg/kg dosage, 5 h after reperfusion) is recorded as “tendency of improvement of electroencephalogram, but there was no significant statistics difference”; in data set [7] (50 mg/kg and 10 mg/kg, 5 h after reperfusion (p<0.01)), “could improve electroencephalogram significantly”. In addition, the “degree of denaturalization of nerve fibers” value in [8] is listed as “could relieve the degree of denaturalization of nerve fibers”. Besides, the “number of nerve cells of necrosis” value in data set [8] is given as “could decrease the number of nerve cells of necrosis”. For the same compound, in data set [1], the MDA content was 65.8±19 nmol/mg tissue weight. Further, the “water content increase of cerebral tissue in blocked area” value in [9] was “could significantly lower water content increase of cerebral tissue in blocked area”. Moreover, the median lethal dose (LD50) in “Acute toxicity test” (im, intramuscular injection, 95% confidence margin 564.77˜603.79 mg/kg) was found to be 584 mg/kg; in the data set “Acute toxicity test” (intravenous injection, 95% confidence margin 346.01˜366.64 mg/kg), 356 mg/kg. In addition, the toxicity finding result in the data set with Rats (100 mg/kg) is reported as “poisonous dosage”; in the data set on Rats (10 and 30 mg/kg), “minor local stimulation”. For the same compound, the main toxic finding result in the data set on Rats (iv injection for 14 days, injury correlated positively with dosage) is “inflammation of tail vein inner membrane”. For the same compound, the “behavior obstruction caused by cerebral injuries” value in data set [2] is listed as “could be significantly relieved”.
